Data published in patent publication US11691984B2, “Compounds and methods for DCAF-mediated protein degradation” (The Scripps Research Institute, priority 2018, dated 2023).

Legend:
FLAG-FKBP12_NLS = FLAG-FKBP12_NLS (Homo sapiens, UniProt P62942); experiment: Western blot of stably expressed FLAG-FKBP12_NLS in MDA-MB-231 cells; type: cell-based; design: expressed in transfected cells; host or cells: HEK293T, MDA-MB-231 and HEK293 DCAF16+/+ and DCAF16-/- clones (lentiviral pCDH-CMV-MCS-EF1-Puro); details: 1 μM, 8 hours
Chain of FLAG-FKBP12_NLS (P62942 whole entry): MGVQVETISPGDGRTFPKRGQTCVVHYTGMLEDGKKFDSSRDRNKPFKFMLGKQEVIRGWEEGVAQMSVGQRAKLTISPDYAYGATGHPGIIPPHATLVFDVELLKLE
Description: FLAG-FKBP12 or FLAG-FKBP12_NLS lentivirus was generated by co-transfection of FLAG-FKBP12 or FLAG-FKBP12_NLS, pCMV-dR8.2 and pMD2.G into HEK 293T cells using FuGene 6 transfection reagent (Promega). Virus-containing medium were collected 48 h after transfection, filtered with […] filter, and used to transduce HEK293T and MDA-MB-231 cells in the presence of 10 μg/mL polybrene (Santa Cruz). 72 h after transduction, puromycin (2 μg/mL) was added to cells. HEK293T cells stably expressing FLAG-FKBP12 or FLAG-FKBP12_NLS were obtained after puromycin selection for 7 days. HEK293T cells stably expressing pCDH empty vector were generated in parallel as control.
(§1) Cells were collected and lysed in 1% NP-40 lysis buffer (25 mM Tris-HCl pH 7.4, 150 mM NaCl, 10% glycerol, 1% Nonidet P-40) with complete protease inhibitor cocktail (Roche). Cells were vortexed and sonicated for 5 pulses (40%, 4). The supernatant was collected after centrifugation at 16,000 g for 10 min at 4° C. Protein concentration was determined by DC assay (Bio-Rad). Protein lysate was heated at 95° C. for 5 min in 1× Laemmli sample buffer. Proteins were resolved by 12% or 14% Novex Tris-Glycine Mini Gels (Invitrogen) and transferred to polyvinylidene fluoride (PVDF) membrane (0.2 Bio-Rad). The membrane was blocked with 5% BSA in TBST buffer (0.1% Tween 20, 20 mM Tris-HCl 7.6, 150 mM NaCl) at room temperature for 1 h. The antibody was diluted with fresh 5% BSA in TBST buffer (1:10000 dilution for FLAG, HA and β-Actin, 1:1000 dilution for others) and incubated with membrane (1 h room temperature for FLAG, HA and β-Actin, overnight 4° C. for others). Membrane was washed three times with TBST buffer and incubated with secondary antibody (1:5000 dilution in 5% BSA in TBST) at room temperature for 1 h. Membrane was washed three times with TBST buffer. The chemiluminescence signal in membrane was recorded after developing in ECL or ECL plus western blotting detection reagent using CL-XPosure film (Thermo Scientific). Relative band intensities were quantified using ImageJ.

[1] = target: T1, HA-DCAF16 and FLAG-FKBP12_NLS (Homo sapiens, UniProt P62942+Q9NXF7); experiment: Co-immunoprecipitation of HA-DCAF16 with FLAG-FKBP12_NLS (ternary complex) in HEK293T cells; type: cell-based; details: 5 μM, MG132 10 μM, 2 hours
T1 construct: expressed in transfected cells; host or cells: HEK293T stably expressing FLAG-FKBP12_NLS, transiently transfected with HA-DCAF16 (pRK5)
T1 sequence (Q9NXF7 whole entry): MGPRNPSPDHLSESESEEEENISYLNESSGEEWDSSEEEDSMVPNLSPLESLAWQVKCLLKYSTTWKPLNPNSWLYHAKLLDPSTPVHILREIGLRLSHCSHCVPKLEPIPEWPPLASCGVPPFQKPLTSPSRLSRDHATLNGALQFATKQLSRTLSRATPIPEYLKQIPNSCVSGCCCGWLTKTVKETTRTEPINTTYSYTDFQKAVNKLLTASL
T1 sequence (P62942 2-108): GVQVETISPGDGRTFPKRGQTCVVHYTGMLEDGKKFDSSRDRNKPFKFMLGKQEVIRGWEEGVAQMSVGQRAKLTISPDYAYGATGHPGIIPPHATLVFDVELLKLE
T1 sequence (Q16531 whole entry partner): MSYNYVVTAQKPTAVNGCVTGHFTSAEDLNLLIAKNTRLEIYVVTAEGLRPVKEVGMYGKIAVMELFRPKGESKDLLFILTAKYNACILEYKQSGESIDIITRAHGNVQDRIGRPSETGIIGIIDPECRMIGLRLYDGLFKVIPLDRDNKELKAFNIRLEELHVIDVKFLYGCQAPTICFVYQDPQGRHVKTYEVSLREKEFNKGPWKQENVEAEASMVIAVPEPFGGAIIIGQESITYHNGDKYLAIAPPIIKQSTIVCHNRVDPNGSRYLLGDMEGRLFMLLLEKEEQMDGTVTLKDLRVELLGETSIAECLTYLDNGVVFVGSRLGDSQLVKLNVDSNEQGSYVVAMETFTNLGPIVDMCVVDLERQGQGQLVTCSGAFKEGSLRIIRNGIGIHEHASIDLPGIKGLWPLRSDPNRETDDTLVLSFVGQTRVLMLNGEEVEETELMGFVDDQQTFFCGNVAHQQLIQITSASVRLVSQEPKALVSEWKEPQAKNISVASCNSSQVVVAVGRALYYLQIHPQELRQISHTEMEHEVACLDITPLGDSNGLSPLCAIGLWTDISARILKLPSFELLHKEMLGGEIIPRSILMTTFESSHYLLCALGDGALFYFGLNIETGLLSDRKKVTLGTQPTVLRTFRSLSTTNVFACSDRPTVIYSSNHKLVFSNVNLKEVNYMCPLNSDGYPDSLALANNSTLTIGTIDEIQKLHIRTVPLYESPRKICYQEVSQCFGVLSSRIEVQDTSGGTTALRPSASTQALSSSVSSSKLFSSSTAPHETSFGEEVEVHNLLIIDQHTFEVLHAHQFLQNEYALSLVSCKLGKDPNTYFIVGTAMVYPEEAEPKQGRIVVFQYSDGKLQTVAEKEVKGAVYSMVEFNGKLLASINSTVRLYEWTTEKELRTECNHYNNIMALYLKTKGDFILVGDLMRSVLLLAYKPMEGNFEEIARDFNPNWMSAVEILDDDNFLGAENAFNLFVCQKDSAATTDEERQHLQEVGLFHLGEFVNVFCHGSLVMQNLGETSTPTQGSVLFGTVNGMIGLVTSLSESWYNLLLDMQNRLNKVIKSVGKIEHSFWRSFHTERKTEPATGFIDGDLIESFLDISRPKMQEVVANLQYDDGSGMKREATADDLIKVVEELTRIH
Description: as §1
Cells were collected and lysed in 1% NP-40 lysis buffer with complete protease inhibitor cocktail on ice for 10 min, followed by 5 pulses of sonication (40%, 4). After centrifugation at 16,000 g for 10 min at 4° C., the supernatant was collected. FLAG affinity gel (20 μL slurry per sample) was incubated with protein lysates at 4° C. for 1 h and washed four times with IP washing buffer. The affinity gel was heated at 95° C. for 10 min in 2× Laemmli sample buffer, followed by western blot analysis.

DCAF16 = target: T2, DCAF16 (Homo sapiens, UniProt Q9NXF7); experiment: LC-MS/MS detection of KB02-PEG0-SLF-modified tryptic peptides on DCAF16; type: binding; details: HA-DCAF16-transfected HEK293T, 10 μM, 2 h
T2 construct: endogenously expressed DCAF16 in HEK293T cells; endogenous in cells; host or cells: HEK293T
T2 sequence (Q9NXF7 whole entry): as the sequence (Q9NXF7 whole entry) above
Description: HEK293T cells were transfected with HA-DCAF16 plasmid by PEI transfection reagent for 24 h and treated with DMSO or 10 μM KB02-PEG0-SLF for 2 h. Cells were collected and lysed in 1% NP-40 lysis buffer with complete protease inhibitor cocktail. HA immunoprecipitation was performed with 10 mg of total protein lysates to purify HA-DCAF16. After washing the HA resin three times with IP washing buffer and once with PBS, HA-DCAF16 protein was eluted by heating at 65° C. for 10 min with 8M urea in PBS, then reduced with 12.5 mM DTT at 65° C. for 15 min and alkylated with 25 mM iodoacetamide at 37° C. for 30 min. The protein solution was diluted with PBS to 2M urea and digested with 2 μg trypsin at 37° C. for 6 h. Tryptic peptides were acidified with 5% formic acid and loaded onto a silica capillary column (250 μm) packed with 3 cm of C18 resin (Aqua 5 Phenomenex). Peptides were analyzed on LTQ-Orbitrap Elite mass spectrometer (Thermo Scientific) coupled with a Thermo UltiMate 3000 UHPLC system. Peptides were separated on a capillary column packed with 10 cm of C18 resin (Aqua 5 Phenomenex) and a 5 μm tip. The flow rate was 0.5 μL/min. […]

## CCC(C)(C)C(=O)C(=O)N1CCCC[C@H]1C(=O)O[C@H](CCc1ccc(OC)c(OC)c1)c1cccc(NC(=O)COc2ccc3c(c2)CCCN3C(=O)CCl)c1 [KB02-PEG0-SLF, (R)-1-(3-(2-((1-(2-chloroacetyl)-1,2,3,4-tetrahydroquinolin-6-yl)oxy)acetamido)phenyl)-3-(3,4-dimethoxyphenyl)propyl (5)-1-(3,3-dimethyl-2-oxopentanoyl)piperidine-2-carboxylate]
FLAG-FKBP12_NLS
  degradation of FLAG-FKBP12_NLS in MDA-MB-231 cells: degradation of stably expressed FLAG-FKBP12_NLS
[1]
  co-immunoprecipitation of HA-DCAF16 with FLAG-FKBP12_NLS: co-immunoprecipitated with HA-DCAF16
DCAF16
  modified DCAF16 tryptic peptide identified: tryptic peptide (aa 168-184) containing C173 and C177-179
